The IC50 is the concentration that gives 50% inhibition. Read a low IC50 as inhibition by little substance.

Type in all cases: biochemical
Common to all, as to settings: 15 nM tritium labelled cAMP, 1 h at room temperature, SPA beads

In one test the target is PDE1B (Homo sapiens, UniProt Q01064). As to the kind of experiment: PDE1 inhibition assay (PDE1B). The procedure: (§1) PDE1A, PDE1B and PDE1C assays were performed as follows: the assays was performed in 60 μL samples containing a fixed amount of the PDE1 enzym1 (sufficient to convert 20-25% of the cyclic nucleotide substrate), a buffer (50 mM HEPES pH 7.6; 10 mM MgCl2; 0.02% Tween20), 0.1 mg/ml BSA, 15 nM tritium labelled cAMP and varying amounts of inhibitors. Reactions were initiated by addition of the cyclic nucleotide substrate, and reactions were allowed to proceed for 1 h at room temperature before being terminated through mixing with 20 μL (0.2 mg) yttrium silicate SPA beads (PerkinElmer). The beads were allowed to settle for 1 h in the dark before the plates were counted in a Wallac 1450 Microbeta counter. The measured signals were converted to activity relative to an uninhibited control (100%) and IC50 values were calculated using XIFit (model 205, IDBS).

The target of a further test is PDE1C (Homo sapiens, UniProt Q14123). As to the kind of experiment: PDE1 inhibition assay (PDE1C). On the procedure:
as §1

The next test has as its target PDE1A (Homo sapiens, UniProt P54750). The experiment in a line: PDE1 inhibition assay (PDE1A). The procedure:
as §1

Chain of PDE1C (Q14123 whole entry): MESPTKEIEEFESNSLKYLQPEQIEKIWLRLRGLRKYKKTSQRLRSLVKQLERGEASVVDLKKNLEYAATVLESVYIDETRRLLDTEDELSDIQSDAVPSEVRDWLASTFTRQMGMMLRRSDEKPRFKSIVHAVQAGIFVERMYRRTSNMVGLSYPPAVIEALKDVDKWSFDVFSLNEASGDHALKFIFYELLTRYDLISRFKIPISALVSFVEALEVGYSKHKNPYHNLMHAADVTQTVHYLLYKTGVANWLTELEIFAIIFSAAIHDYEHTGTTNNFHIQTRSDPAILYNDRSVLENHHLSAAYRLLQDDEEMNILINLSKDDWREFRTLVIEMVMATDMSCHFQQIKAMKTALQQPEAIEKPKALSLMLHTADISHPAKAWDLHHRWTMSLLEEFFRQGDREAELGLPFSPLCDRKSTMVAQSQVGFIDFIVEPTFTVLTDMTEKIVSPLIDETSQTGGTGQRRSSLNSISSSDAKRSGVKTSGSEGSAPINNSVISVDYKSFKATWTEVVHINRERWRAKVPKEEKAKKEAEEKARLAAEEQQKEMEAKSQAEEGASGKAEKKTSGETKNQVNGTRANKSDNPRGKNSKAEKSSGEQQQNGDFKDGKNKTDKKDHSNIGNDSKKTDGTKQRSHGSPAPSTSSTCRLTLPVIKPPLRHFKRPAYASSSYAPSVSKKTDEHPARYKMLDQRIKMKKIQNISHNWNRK
Chain of PDE1A (P54750 whole entry): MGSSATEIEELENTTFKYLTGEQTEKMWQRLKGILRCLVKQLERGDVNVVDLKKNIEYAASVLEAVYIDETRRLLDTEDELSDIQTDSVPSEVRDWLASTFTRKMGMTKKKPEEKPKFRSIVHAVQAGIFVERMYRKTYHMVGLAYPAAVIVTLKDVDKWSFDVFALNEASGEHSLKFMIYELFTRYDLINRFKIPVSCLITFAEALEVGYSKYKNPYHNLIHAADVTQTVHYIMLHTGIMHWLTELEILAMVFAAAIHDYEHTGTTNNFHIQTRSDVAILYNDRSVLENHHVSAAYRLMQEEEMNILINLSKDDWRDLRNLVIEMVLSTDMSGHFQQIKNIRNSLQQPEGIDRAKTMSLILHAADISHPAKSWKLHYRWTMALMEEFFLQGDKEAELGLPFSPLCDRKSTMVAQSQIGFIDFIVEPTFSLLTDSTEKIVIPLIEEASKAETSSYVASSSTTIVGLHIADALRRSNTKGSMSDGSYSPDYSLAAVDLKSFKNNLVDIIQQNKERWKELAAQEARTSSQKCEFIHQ
Chain of PDE1B (Q01064 whole entry): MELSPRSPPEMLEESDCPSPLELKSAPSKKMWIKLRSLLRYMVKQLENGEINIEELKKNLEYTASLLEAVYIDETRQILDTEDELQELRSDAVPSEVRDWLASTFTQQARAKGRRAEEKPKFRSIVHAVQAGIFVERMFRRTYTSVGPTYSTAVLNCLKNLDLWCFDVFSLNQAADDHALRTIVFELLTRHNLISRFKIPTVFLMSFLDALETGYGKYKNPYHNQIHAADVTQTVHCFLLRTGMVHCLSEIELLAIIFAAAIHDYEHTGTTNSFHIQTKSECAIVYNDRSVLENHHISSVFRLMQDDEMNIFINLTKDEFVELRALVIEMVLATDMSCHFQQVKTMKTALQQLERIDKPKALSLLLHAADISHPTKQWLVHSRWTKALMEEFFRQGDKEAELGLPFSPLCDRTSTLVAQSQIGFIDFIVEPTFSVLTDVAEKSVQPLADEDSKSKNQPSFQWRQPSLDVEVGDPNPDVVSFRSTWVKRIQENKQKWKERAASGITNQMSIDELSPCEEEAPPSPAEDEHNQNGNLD

Turning to `COc1ccc2c(N3CC[C@@H]4OCC[C@@H]43)ncnc2c1OC` (single isomer, unassigned) [Compound 1], the IC50 amounted to 0.12 µM against PDE1B, 0.12 µM at PDE1C and 0.16 µM on PDE1A.

With `COc1ccc2c(N3CC[C@H]4OCC[C@H]43)ncnc2c1OC` (single isomer, unassigned) [Compound 2], the values for the IC50 at PDE1B, against PDE1C and on PDE1A were 3.7 µM, 2.8 µM and 3.2 µM, respectively.

The values above are taken from patent publication US9718832B2, “Hexahydrofuropyrroles as PDE1 inhibitors” (H. Lundbeck A/S, priority 2014, dated 2017).
